Laboratory results reported in paper PMC12390126, “Human Skin Permeation of Ethoxy- and Propoxypropanol Commonly Found in Water-Based Products” (Toxics, 2025).

Assays:
[1] = Mass balance of flow-through diffusion cell experiments; type: in vitro ADME, human; details: for Receptor Chamber (percentage of applied dose): remaining fluid at end
Experimental: A mass balance was performed only for flow-through diffusion cell experiments following the OECD guidelines, where the mean recovery should be 100 ± 10% [20]. The following components of the test system were analyzed to determine recovery: donor chamber, skin, and receptor chamber. The donor chamber was rinsed three times with 500 µL of water (donor chamber samples), the skin disk was sonicated three times for five minutes in water (skin samples), and the remaining fluid receptor chamber was collected (receptor chamber samples). If liquid was present in the donor chamber at the end of the experiment, it was also collected and analyzed with the donor chamber samples. PGE concentrations were quantified in all mass balance samples by GC-MS/MS, i.e., donor chamber rinsing water, water collected after sonication of skin, and remaining fluid receptor chamber. Mean concentrations of PGEE and PGPE were calculated for all cells in both conditions (neat or aqueous), and the results were reported as the percentage of the applied dose.

[2] = In vitro static diffusion cell skin permeation (influence of water); type: in vitro ADME, human; details: static cells; 0, 25, 50 or 75% of water
From the text: Human abdominal full thickness skin was obtained as surgical waste from the Lausanne University Hospital (CHUV) and the Department of Musculoskeletal Medicine (DAL) Biobank, Switzerland, according to the Swiss ethics in the canton Vaud (CER-VD: Commission cantonal d’éthique de la recherche sur l’être humain, ethical protocol 264/12). The surgeon obtained written consent from the patients before the start of the operation. The collected skin was anonymized, and only sex and age were provided for this study. Human skin was obtained directly after the surgery and immediately dermatomed to a thickness of 800 µm (Acculan®II, B. Braun/Aesculap, Sempach, Switzerland) to account for any potential storage effects on its in vitro mass balance. The experiments were run with triplicate skin samples (n = 3) from three different donors giving a total of nine samples for each experiment. The skin samples used for this study were stored at −20 °C for up to four years. […]
The concentrations of parent compounds were quantified by gas-chromatography tandem mass spectrometry (GC-MS/MS). […] The limits of detections (LODs) for PGEE and PGPE were 0.045 µg/mL and 0.035 µg/mL, respectively, and the limits of quantifications (LOQs) for PGEE and for PGPE were 0.135 µg/mL and 0.105 µg/mL, respectively. […]

[3] = design: method as in earlier work; details: cited from earlier work

Donor Chamber (percentage of applied dose) ([1]; 50:50 (aq)) [%]	Receptor Chamber over 24 h (sum of receptor fluid collected at different time points) ([1]; 50:50 (aq)) [%]	Recovery (percentage of applied dose) ([1]; 50:50 (aq)) [%]	Receptor Chamber (percentage of applied dose) ([1]; 50:50 (aq)) [%]	Donor Chamber (percentage of applied dose) ([1]; neat) [%]	Receptor Chamber over 24 h (sum of receptor fluid collected at different time points) ([1]; neat) [%]	Recovery (percentage of applied dose) ([1]; neat) [%]	Receptor Chamber (percentage of applied dose) ([1]; neat) [%]	SMILES	mean cumulative amount in receptor fluid after 24 h: trend with percentage of water [2]	LogP [3]
0.05	24.1	24.6	0.4	0.18	9.4	9.9	0.3	CCCOCC(C)O (centres unmarked) [PGPE, propoxypropanol]	reached a maximum when diluted with 25 % water (75:25), followed by a decrease at higher water concentrations	0.7
0.02	44.0	45.1	1.1	0.0003	16.8	17.3	0.5	CCOCC(C)O (centres unmarked) [PGEE]	increased with the percentage of water in the applied mixture	0.2
